Assay results: patent US9163018B2, “Method of treatment of age-related macular degeneration (AMD)” (Prana Biotechnology Limited, priority 2006, dated 2015)

Experiments:
[1] = target: T1, Aβ 1-42 (Homo sapiens, UniProt P05067); assay: Fluorometric H2O2 assay (inhibition of Abeta H2O2 production); assay type: biochemical; conditions: concentration required to inhibit 50% of Abeta H2O2 production; read-out: H2O2 IC50
T1 construct: The reaction solutions contained Aβ 1-42 at concentrations
Method in brief: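 Reactions in PBS pH 7.4 at 37 C for 60 min, containing Aβ, copper and test compound. H2O2 output read as fluorescence of HRP-coupled deacetylated DCF. Fluorescence converted to H2O2 concentration via H2O2 standards.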

[2] = test system: M17 human neuroblastoma cells; assay: Cytotoxicity, M17 human neuroblastoma cells; assay type: cell-based; conditions: for Cytotox (% viable) M17 cells at 1 μM: 1 μM test compound; for Cytotox (% viable) M17 cells at 10 μM: 10 μM test compound
Description: Assay 3. MTS Assay for Cell Viability
Cell viability is determined using the MTS assay. Culture medium is replaced with fresh neurobasal medium plus B27 supplements minus antioxidants. 1/10th volume MTS solution (Cell Titre 96 Aqueous One, Promega Corporation) and incubated at 37° C., 2 hrs. 200 microliter aliquots are measured with a spectrophotometer at 560 nm.

[3] = test system: dityrosine oligomerization; assay: CuTy: inhibition of dityrosine oligomerization; assay type: biochemical; conditions: referenced to in-house standard (set as 100% inhibition)
[4] = Mice plasma concentration after oral dose; assay type: in vivo; conditions: for Mice plasma concentration: 30 min to 4 h after single or repeat oral dose of 30 mg/kg; for Mice plasma concentration at 10 mg/kg: oral dose 10 mg/kg
[5] = Toxicity, visual observations in mice; conditions: duration and visual observations
[6] = test system: primary cortical neuronal cultured cells; assay: Test compound cytotoxicity, MTS assay, primary cortical neuronal cultures; assay type: cell-based, mouse; conditions: for Cytotox (% viable) Neuronal cells at 1 μM: 1 μM test compound; for Cytotox (% viable) Neuronal cells at 10 μM: 10 μM test compound
Method in brief: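 Primary cortical neurons were cultured five days in Neurobasal/B27, then exposed on day six to compounds (from 2.5 mM DMSO stocks) in medium minus antioxidants, in triplicate for 4 days at 37° C. Viability was measured by MTS, 2 h at 37° C, absorbance at 560 nm.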

[7] = target: T2, Abeta:Zn (25:50 μM) Synthetic Aggregations (Homo sapiens, UniProt P05067); assay: Disaggregation of Abeta:Zn synthetic aggregates (ThT fluorescence); assay type: biochemical; conditions: for Disaggregation % Aggregate reduction at 5 μM: 5 μM test compound; for EC50: Abeta:Zn 25:50 μM aggregates
T2 construct: PB Compound Mediated Dissolution of Aggregated Abeta 1-42; purchased Keck Laboratory, Yale University School of Medicine
T2 sequence (P05067 672-713 limits assumed): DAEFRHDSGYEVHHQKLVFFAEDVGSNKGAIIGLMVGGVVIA
Method in brief: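 ThT signal (excitation 450 nm, emission 480 nm) measured after compounds at final 1, 5, 10, 25 and 50 μM acted 2 h at 37 degrees on preformed aggregates. Those aggregates came from 24 h rotating incubation of 25 μM Abeta1-42, 50 μM ZnCl2 and 50 μM ThT in PBS pH 6.6.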

[8] = test system: Aβ deposits; conditions: 9 weeks; for Tg Mice % difference from control in Amyloid plaque abundance / Tg Mice % difference from control in insoluble brain amyloid burden / Tg Mice % difference from control in soluble brain amyloid burden: daily oral gavage 30 mg/kg, 13-14 months old transgenic mice
[9] = test system: Abeta in extract of post-mortem human AD brain tissue; assay: BAS: human brain amyloid solubilization assay; assay type: biochemical; conditions: max effect across the concentration range, referenced to baseline PBS
Method in brief: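 Plaque-bearing post-mortem AD cortex homogenised in ice-cold PBS pH 7.4; soluble Aβ in 100,000×g supernatant, insoluble Aβ from resuspended pellet. Fractions run on Tris-Tricine SDS-PAGE, immunoblotted with W02, densitometry against synthetic Aβ40 standards.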

T1 sequence (P05067 672-713 limits assumed): as above

Row | Compound | IC50 [1] [nM] | Cytotox (% viable) M17 cells at 1 μM [2] [%] | Cytotox (% viable) M17 cells at 10 μM [2] [%] | CuTy % inhibition of dityrosine oligomerization [3] | Mice plasma concentration [4] | Toxicity at 30 mg/kg [5] | Cytotox (% viable) Neuronal cells at 1 μM [6] [%] | Cytotox (% viable) Neuronal cells at 10 μM [6] [%] | Disaggregation % Aggregate reduction at 5 μM [7] [%] | EC50 [7] [µM] | Tg Mice % difference from control in Amyloid plaque abundance [8] | Tg Mice % difference from control in insoluble brain amyloid burden [8] | Tg Mice % difference from control in soluble brain amyloid burden [8] | BAS max effect [9] [%] | Mice plasma concentration at 10 mg/kg [4] | Toxicity at 10 mg/kg [5] | Tg Mice Amyloid plaque abundance at 3 mg/kg ([8]; daily oral gavage 3 mg/kg) | Tg Mice soluble brain amyloid burden at 3 mg/kg ([8]; daily oral gavage 3 mg/kg) | Tg Mice % difference in insoluble brain amyloid burden at 3 mg/kg ([8]; daily oral gavage 3 mg/kg, ex-outlier) [%]
1 | O=c1c2c(Cl)cc(Cl)c(O)c2ncn1Cc1nc2ccccc2s1 [PB 1257] | 690 | 111.1 | 80.9 | CuTy: 60% inhibition | Up to 166.1 ng/ mL ng/mL | 10 days, none | – | – | – | – | – | – | – | – | – | – | – | – | –
2 | CCC(C)n1cnc2c(O)c(Cl)cc(Cl)c2c1=O (stereo not shown) [PB 1112] | – | 99.2 | 68.6 | CuTy: 125% inhibition | Up to 2949 ng/ mL ng/mL | 10 days, none | 94 | 67 | 46.4 | > 20 | – | – | – | – | – | – | – | – | –
3 | CCn1c(CN(C)C)nc2c(O)c(Cl)cc(Cl)c2c1=O.Cl [PB 1268] | 360 | 99.2 | 102.1 | CuTy: 110% inhibition | Up to 975.9 ng/ml ng/mL | 10 days, none | – | – | – | – | – | – | – | – | – | – | – | – | –
4 | O=c1c2c(Cl)cc(Cl)c(O)c2ncn1Cc1nccs1 [PB 1254] | 250 | 106.6 | 106 | CuTy: 90% inhibition | Up tp 441.4 ng/ mL ng/mL | 10 days, none | – | – | – | – | – | – | – | – | – | – | – | – | –
5 | CCc1c(O)c(=O)ccn1CC.Cl [PB 1270] | > 10000 | – | – | CuTy: 80% inhibition | – | – | – | – | – | – | – | – | – | – | – | – | – | – | –
6 | O=c1c2c(Cl)cc(Cl)c(O)c2ncn1CCN1CCCC1 [PB 1075] | – | 103.6 | 101.3 | – | Up to 520 ng/ mL in mice ng/mL | 14 days, 1 of 4 death | 104 | 91 | 0 | > 20 | −23% | Increase | decrease | – | – | – | – | – | –
7 | O=c1c2c(Cl)cc(Cl)c(O)c2ncn1-c1ccc2[nH]ncc2c1 [PB 1246] | 310 | 104.3 | 73.5 | CuTy: 120% inhibition | Up to 126 ng/ mL ng/mL | 10 days, none | – | – | – | – | – | – | – | – | – | – | – | – | –
8 | CCCn1cnc2c(O)c(I)ccc2c1=S [PB 1165] | 890 | 96.7 | 107.1 | – | Up tp 1593 ng/ ml ng/mL | 10 days, none | – | – | 52 | 4.7 | Decrease | No change | No change | – | – | – | – | – | –
9 | O=c1c2c(Cl)cc(Cl)c(O)c2ncn1Nc1ccc(F)cc1F [PB-1100] | – | 108.1 | 80.5 | CuTy: 10% inhibition | Up to 1,130.6 ng/mL | 10 days, none | 100 | 92 | 42 | – | – | – | – | – | – | – | – | – | –
10 | CCNCc1ccc2c(Cl)cc(Cl)c(O)c2n1.Cl [PB 1051] | 380 | 78.3 | 44 | – | Up to 403 ng/ mL ng/mL | 10 days, none | 87 | 56 | 22.3 | > 20 | −39% | −21% | slight increase | 270 | – | – | – | – | –
11 | Br.CCN(CC)Cc1nc2c(O)c(Cl)cc(Cl)c2c(=O)[nH]1 [PB 1128] | – | 106.5 | 99.1 | CuTy: 100% inhibition | Up to 2289 ng/ mL ng/mL | 10 days, none | 100.6 | 93.7 | 41 | – | – | – | – | – | – | – | – | – | –
12 | Oc1c(Cl)cc(Cl)c2ccc(-c3ccccn3)nc12 [PB 1052] | 640 | – | – | – | – | – | 55 | 31 | 62.8 | 3.3 | Decrease insol, Decrease sol, Decrease plaque | Decrease insol, Decrease sol, Decrease plaque | Decrease insol, Decrease sol, Decrease plaque | 212 | – | – | – | – | –
13 | CC(C)Cn1cnc2c(O)c(I)ccc2c1=O [PB 1152] | 310 | 95.7 | 71.2 | – | – | – | – | – | 56 | > 20 | – | – | – | – | At 10 mg/kg: Up to 309 ng/ml ng/mL | At 10 mg/kg 10 days, none | – | – | –
14 | Br.CN(C)Cc1nc2c(O)c(Cl)cc(Cl)c2c(=O)[nH]1 [PB 1147] | – | 94.7 | 100.3 | CuTy: 100% inhibition | Up tp 642.6 ng/ mL ng/mL | 10 days, none | – | – | 12.5 | > 20 | – | – | – | – | – | – | – | – | –
15 | O=c1c2c(Cl)cc(I)c(O)c2ncn1CC1CC1 [PB 1140] | 360 | 92.4 | 98.2 | – | – | – | – | – | 64 | 3.5 | – | – | – | – | At 10 mg/kg: Up to 2315 ng/ ml ng/mL | At 10 mg/kg 10 days, none | – | – | –
16 | O=C1NC(=O)c2cc(-n3cnc4c(O)c(Cl)cc(Cl)c4c3=O)ccc21 [PB 1247] | 560 | 101.2 | 110.8 | CuTy: 150% inhibition | – | 10 days, none | – | – | – | – | – | – | – | – | – | – | – | – | –
17 | CC(C)Cn1c(CN(C)C)nc2c(O)c(Cl)cc(Cl)c2c1=O.Cl [PB 1271] | 170 | 104.4 | 61.5 | CuTy: 50% inhibition | – | – | – | – | – | – | – | – | – | – | – | – | – | – | –
18 | O=c1c2c(Cl)cc(Cl)c(O)c2ncn1Cc1cccc(Cn2cnc3c(O)c(Cl)cc(Cl)c3c2=O)n1 [PB 1101] | 4100 | 94.9 | 26.8 | 10% inhibition | – | 10 days, none | 89 | 67 | 45 | – | – | – | – | – | – | – | – | – | –
19 | CCCc1cnc2c(O)c(I)ccn2c1=O [PB 1151] | 330 | 80.8 | 47.6 | – | Up to 11742 ng/ ml ng/mL | – | – | – | 57 | 5.6 | – | – | – | – | – | – | No change | No change | −24
20 | Oc1c(C2CC2)ncc2cccnc12 [PB 1073] | 520 | – | – | – | Up to 350 ng/ mL in mice ng/mL | 6 days, none | 100 | 98 | 50 | 4.7 | – | – | – | – | – | – | – | – | –
